Assay results: ChEMBL document CHEMBL3044946, “Glyphosate resistance in perennial ryegrass (Lolium perenne L.) from Argentina” (2012)
Calls of active or inactive are those of the source. The calls are words filed in the database; no cut-off is given here.

How the values were obtained:
Lolium perenne [1] = experiment: Induction of shikimate accumulation in leaf lamina of glyphosate-susceptible Lolium perenne (perennial ryegrass) at 1440 g ae/ha measured 72 hr post compound application; format: functional, organism-based
Lolium perenne [2] = experiment: Induction of shikimate accumulation in leaf sheath of glyphosate-susceptible Lolium perenne (perennial ryegrass) at 1440 g ae/ha measured 48 hr post compound application; format: functional, organism-based
Lolium perenne [3] = experiment: Induction of shikimate accumulation in leaf blades of glyphosate-susceptible Lolium perenne (perennial ryegrass) at 1440 g ae/ha measured 48 hr post compound application; format: functional, organism-based
Lolium perenne [4] = experiment: Induction of shikimate accumulation in leaf lamina of glyphosate-susceptible Lolium perenne (perennial ryegrass) at 1440 g ae/ha measured 24 hr post compound application; format: functional, organism-based
Lolium perenne [5] = experiment: Herbicidal activity against glyphosate-resistant Lolium perenne (perennial ryegrass) assessed as regrowth level of controlled plants at 2880 g ae/ha measured 30 days after compound application; format: functional
Lolium perenne [6] = experiment: Herbicidal activity against glyphosate-resistant Lolium perenne (perennial ryegrass) assessed as regrowth level of controlled plants at 1440 g ae/ha measured 30 days after compound application; format: functional
Lolium perenne [7] = experiment: Herbicidal activity against glyphosate-resistant Lolium perenne (perennial ryegrass) assessed as regrowth level of controlled plants at 720 g ae/ha measured 30 days after compound application; format: functional
Lolium perenne [8] = experiment: Herbicidal activity against glyphosate-resistant Lolium perenne (perennial ryegrass) assessed as regrowth level of controlled plants at 360 g ae/ha measured 30 days after compound application; format: functional
Lolium perenne [9] = experiment: Herbicidal activity against glyphosate-resistant Lolium perenne (perennial ryegrass) assessed as plant-regrowth at 1440 g ae/ha measured 30 days after compound application; format: functional
Lolium perenne [10] = experiment: Herbicidal activity against glyphosate-resistant Lolium perenne (perennial ryegrass) assessed as plant-regrowth at 2880 g ae/ha measured 30 days after compound application; format: functional
Lolium perenne [11] = experiment: Herbicidal activity against glyphosate-resistant Lolium perenne (perennial ryegrass) assessed as plant-regrowth at 720 g ae/ha measured 30 days after compound application; format: functional
Lolium perenne [12] = experiment: Herbicidal activity against glyphosate-resistant Lolium perenne (perennial ryegrass) assessed as plant-regrowth at 360 g ae/ha measured 30 days after compound application; format: functional
Lolium perenne [13] = experiment: Resistance index, ratio of ED50 for glyphosate-resistant Lolium perenne (perennial ryegrass) to ED50 for glyphosate-susceptible Lolium perenne (perennial ryegrass) by plant survival inhibition study; format: functional
Lolium perenne [14] = experiment: Herbicidal activity against glyphosate-resistant Lolium perenne (perennial ryegrass) assessed as inhibition of plant survival measured after 15 days post compound application; format: functional
Lolium perenne [15] = experiment: Herbicidal activity against glyphosate-susceptible Lolium perenne (perennial ryegrass) assessed as inhibition of plant survival measured after 15 days post compound application; format: functional
Lolium perenne [16] = experiment: Reduction in chlorophyll content in glyphosate-resistant Lolium perenne (perennial ryegrass) at 1000 to 3000 g ae/ha measured after 10 days post compound application; format: functional, organism-based
Lolium perenne [17] = experiment: Reduction in chlorophyll content in glyphosate-susceptible Lolium perenne (perennial ryegrass) at 1000 to 3000 g ae/ha measured after 7 to 10 days post compound application; format: functional, organism-based
Lolium perenne [18] = experiment: Resistance index, ratio of GR50 for glyphosate-resistant Lolium perenne (perennial ryegrass) to GR50 for glyphosate-susceptible Lolium perenne (perennial ryegrass) by plumule growth inhibition study; format: functional
Lolium perenne [19] = experiment: Herbicidal activity against glyphosate-resistant Lolium perenne (perennial ryegrass) assessed as inhibition of plumule growth; format: functional
Lolium perenne [20] = experiment: Herbicidal activity against glyphosate-susceptible Lolium perenne (perennial ryegrass) assessed as inhibition of plumule growth; format: functional
Lolium perenne [21] = experiment: Resistance index, ratio of LD50 for glyphosate-resistant Lolium perenne (perennial ryegrass) to LD50 for glyphosate-susceptible Lolium perenne (perennial ryegrass) by germination inhibition study; format: functional
Lolium perenne [22] = experiment: Herbicidal activity against glyphosate-resistant Lolium perenne (perennial ryegrass) assessed as inhibition of germination; format: functional
Lolium perenne [23] = experiment: Herbicidal activity against glyphosate-susceptible Lolium perenne (perennial ryegrass) assessed as inhibition of germination; format: functional
Lolium perenne [24] = experiment: Induction of shikimate accumulation in leaf sheath of glyphosate-resistant Lolium perenne (perennial ryegrass) at 1440 g ae/ha measured 24 to 72 hr post compound application; format: functional, organism-based
Lolium perenne [25] = experiment: Induction of shikimate accumulation in leaf blade of glyphosate-resistant Lolium perenne (perennial ryegrass) at 1440 g ae/ha measured 24 to 72 hr post compound application; format: functional, organism-based

## O=C(O)CNCP(=O)(O)O [GLYPHOSATE]
Lolium perenne [1]
  Activity: Active
Lolium perenne [2]
  Activity: Active
Lolium perenne [3]
  Activity: Active
Lolium perenne [4]
  Activity: Active
Lolium perenne [5]
  Activity: 33%
Lolium perenne [6]
  Activity: 43%
Lolium perenne [7]
  Activity: 48%
Lolium perenne [8]
  Activity: 37%
Lolium perenne [9]
  Activity: 23%
Lolium perenne [10]
  Activity: 25%
Lolium perenne [11]
  Activity: 17%
Lolium perenne [12]
  Activity: 6%
Lolium perenne [13]
  Ratio: 10.8
Lolium perenne [14]
  ED50: 1495 gAe/L
Lolium perenne [15]
  ED50: 138.1 gAe/L
Lolium perenne [16]
  Activity: inactive
Lolium perenne [17]
  Activity: Active
Lolium perenne [18]
  Ratio: 4.4
Lolium perenne [19]
  GR50: 41.5 gAe/L
Lolium perenne [20]
  GR50: 9.3 gAe/L
Lolium perenne [21]
  Ratio: 3.2
Lolium perenne [22]
  LD50: 138 gAe/L
Lolium perenne [23]
  LD50: 42 gAe/L
Lolium perenne [24]
  Activity: inactive
Lolium perenne [25]
  Activity: inactive
